# According to ChEMBL document CHEMBL6121007, “Design, synthesis and evaluation of pyrimidine derivatives as sedative-hypnotic agents” (Eur J Med Chem, 2025):
# Experiments:
# [1] = Ratio of drug concentration in male mouse brain to plasma at 10 mg/kg, ip measured after 4 hrs by LC-MS/MS analysis; type: ADME, organism-based; conditions: brain and plasma, read-out: BPR
# [2] = Clearance in male Sprague-Dawley rat at 2.5 mg/kg, ip measured after 5 to 1440 mins by LC-MS/MS analysis; type: ADME, organism-based; conditions: in vivo, time 5-1440 min
# [3] = AUC (0 to t) in male Sprague-Dawley rat at 2.5 mg/kg, ip measured after 5 to 1440 mins by LC-MS/MS analysis; type: ADME, organism-based; conditions: in vivo, time 5-1440 min
# [4] = Drug concentration in male mouse brain at 10 mg/kg, ip measured after 4 hrs by LC-MS/MS analysis; type: ADME, organism-based; conditions: read-out: Ct
# [5] = Upregulation of Wnt signaling pathway related genes in hypothalamus of mouse at 2.5 mg/kg, ip measured after 30 mins by KEGG enrichment analysis relative to control; type: functional; conditions: 0.5 h
# [6] = tested on: Mus musculus; test: Upregulation of calcium signaling pathway related genes in hypothalamus of mouse at 2.5 mg/kg, ip measured after 30 mins by KEGG enrichment analysis relative to control; type: functional; conditions: 0.5 h
smiles,measurement,setting,value
CCn1c2ccccc2c2cc(Nc3ccnc(Nc4ccc(C)c(OC)c4)n3)ccc21,Kp at 4 h,[1],0.31
same,CL/F,[2],0.761 L/h/kg
same,AUC(0-t),[3],3.18 µg·h/mL
same,concentration at 4 h,[4],0.0202 µg/mL
same,Activity,[5],4.05%
same,Activity,[6],4.62%
